Results: publication PMC5291411, “Cytotoxic conjugates of betulinic acid and substituted triazoles prepared by Huisgen Cycloaddition from 30-azidoderivatives” (PLoS ONE, 2017)

Tests used:
Type in all cases: cell-based
BJ = experiment: Cytotoxic MTS assay, BJ fibroblasts; conditions: Homo sapiens, 72 h, non-tumor fibroblasts
Excerpt: (§1) Cytotoxic activity of all synthesized compounds was investigated in vitro against eight human cancer cell lines and two non-tumor fibroblasts using the standard MTS test (Table 1). The cancer cell lines were derived from T-lymphoblastic leukemia CCRF-CEM, leukemia K562 and their multiresistant counterparts expressing P-glycoprotein, MRP1 and LRP proteins (CEM-DNR, K562-TAX), solid tumors including lung (A549) and colon (HCT116, HCT116p53-/-) carcinomas, osteosarcoma cell line (U2OS), and for comparison, tests were performed on two human non-cancer fibroblast cell lines (BJ, MRC-5).
(§2) Biological assays were performed in concordance with our previous publications [[29], [58]; [60]; [61]]. All cells (if not indicated otherwise) were purchased from the American Tissue Culture Collection (ATCC). The CCRF-CEM line is derived from T lymphoblastic leukemia, evincing high chemosenzitivity, K562 represent cells from an acute myeloid leukemia patient sample with bcr-abl translocation, U2OS line is derived from osteosarcoma, HCT116 is colorectal tumor cell line and its p53 gene knock-down counterpart (HCT116p53-/-, Horizon Discovery Ltd, UK) is a model of human cancers with p53 mutation frequently associated with poor prognosis, A549 line is lung adenocarcinoma. The daunorubicin resistant subline of CCRF-CEM cells (CEM-DNR bulk) and paclitaxel resistant subline K562-TAX were selected in our laboratory by the cultivation of maternal cell lines in increasing concentrations of daunorubicine or paclitaxel, respectively. The CEM-DNR bulk cells overexpress MRP-1 and P-glycoprotein protein, while K562-TAX cells overexpress P-glycoprotein only. Both proteins belong to the family of ABC transporters and are involved in the primary and/or acquired multidrug resistance phenomenon. MRC-5 and BJ cell lines were used as a non-tumor control and represent human fibroblasts. The cells were maintained in nunc/corning 80 cm^2 plastic tissue culture flasks and cultured in cell culture medium according to ATCC or Horizon recommendations (DMEM/RPMI 1640 with 5 g/L glucose, 2 mM glutamine, 100 U/mL penicillin, […] streptomycin, 10% fetal calf serum, and NaHCO3).
(§3) MTS assay was performed at Institute of Molecular and Translational Medicine by robotic platform (HighResBiosolutions). Cell suspensions were prepared and diluted according to the particular cell type and the expected target cell density (25000–35000 cells/mL based on cell growth characteristics). Cells were added by automatic pipetor (30 μL) into 384 well microtiter plates. All tested compounds were dissolved in 100% DMSO and four-fold dilutions of the intended test concentration were added in 0.15 μL aliquots at time zero to the microtiter plate wells by the echoacustic non-contact liquid handler Echo550 (Labcyte). The experiments were performed in technical duplicates and three biological replicates at least. The cells were incubated with the tested compounds for 72 h at 37°C, in a 5% CO2 atmosphere at 100% humidity. At the end of the incubation period, the cells were assayed by using the MTS test. Aliquots (5 μL) of the MTS stock solution were pipetted into each well and incubated for additional 1–4 h. After this incubation period, the optical density (OD) was measured at 490 nm with an Envision reader (Perkin Elmer). Tumor cell survival (TCS) was calculated by using the following equation: TCS = (ODdrug-exposed well/mean ODcontrol wells) × 100%. The IC50 value, the drug concentration that is lethal to 50% of the tumor cells, was calculated from the appropriate dose-response curves in Dotmatics software.

U2OS = experiment: Cytotoxic MTS assay, U2OS; conditions: Homo sapiens, 72 h, osteosarcoma
Excerpt: as §1, §2, §3

K562 = experiment: Cytotoxic MTS assay, K562; conditions: Homo sapiens, 72 h, leukemia
Excerpt: as §1, §2, §3

A549 = experiment: Cytotoxic MTS assay, A549; conditions: Homo sapiens, 72 h, lung adenocarcinoma
Excerpt: as §1, §2, §3

CEM-DNR = experiment: Cytotoxic MTS assay, CEM-DNR; conditions: Homo sapiens, 72 h, daunorubicin resistant subline of CCRF-CEM
Excerpt: as §1, §2, §3

CCRF-CEM = experiment: Cytotoxic MTS assay, CCRF-CEM; conditions: Homo sapiens, 72 h, T-lymphoblastic leukemia
Excerpt: as §1, §2, §3

HCT116 = experiment: Cytotoxic MTS assay, HCT116; conditions: Homo sapiens, HCT-116, 72 h, colorectal tumor
Excerpt: as §1, §2, §3

HCT116p53-/- = experiment: Cytotoxic MTS assay, HCT116p53-/-; conditions: Homo sapiens, 72 h, p53 knock-down colorectal tumor
Excerpt: as §1, §2, §3

MRC-5 = experiment: Cytotoxic MTS assay, MRC-5 fibroblasts; conditions: Homo sapiens, MRC5, 72 h, non-tumor fibroblasts
Excerpt: as §1, §2, §3

K562-TAX = experiment: Cytotoxic MTS assay, K562-TAX; conditions: Homo sapiens, 72 h, paclitaxel resistant subline of K562
Excerpt: as §1, §2, §3

SMILES	IC50 (BJ) [µM]	IC50 (U2OS) [µM]	IC50 (K562) [µM]	IC50 (A549) [µM]	IC50 (CEM-DNR) [µM]	IC50 (CCRF-CEM) [µM]	IC50 (HCT116) [µM]	IC50 (HCT116p53-/-) [µM]	IC50 (MRC-5) [µM]	IC50 (K562-TAX) [µM]
C=C(Cn1cc(CN)nn1)[C@@H]1CC[C@]2(C(=O)O)CC[C@]3(C)C(CCC4[C@@]5(C)CC[C@H](OC(C)=O)C(C)(C)C5CC[C@]43C)C12 (stereo partly drawn) [Compound 9h]	> 50	30.6	> 50	30.5	28.3	20.2	32	> 50	> 50	> 50
C=C(Cn1cc(C2CCCC2)nn1)[C@@H]1CC[C@]2(C(=O)O)CC[C@]3(C)C(CCC4[C@@]5(C)CC[C@H](O)C(C)(C)C5CC[C@]43C)C12 (stereo partly drawn) [Compound 11g]	> 50	> 50	> 50	> 50	38	16.7	33.5	> 50	> 50	23.3
C=C(Cn1cc(-c2ccc(N(C)C)cc2)nn1)[C@@H]1CC[C@]2(C(=O)O)CC[C@]3(C)C(CCC4[C@@]5(C)CC[C@H](OC(C)=O)C(C)(C)C5CC[C@]43C)C12 (stereo partly drawn) [Compound 9e]	35.1	31	35.4	26.6	29.6	19.4	32.9	33.1	30.3	30
C=C(Cn1cc(C2CCCC2)nn1)[C@@H]1CC[C@]2(C(=O)O)CC[C@]3(C)C(CCC4[C@@]5(C)CC[C@H](OC(C)=O)C(C)(C)C5CC[C@]43C)C12 (stereo partly drawn) [Compound 9g]	> 50	44.1	43.6	> 50	30.8	26.2	38.3	47.6	> 50	29.1
C=C(Cn1cc(-c2cccnc2)nn1)[C@@H]1CC[C@]2(C(=O)O)CC[C@]3(C)C(CCC4[C@@]5(C)CC[C@H](OC(C)=O)C(C)(C)C5CC[C@]43C)C12 (stereo partly drawn) [Compound 9d]	29.9	17.3	13.3	11.3	12	14.9	19.2	18.7	28.2	11.2
C=C(Cn1cc(-c2ccccc2)nn1)[C@@H]1CC[C@]2(C(=O)O)CC[C@]3(C)C(CCC4[C@@]5(C)CC[C@H](O)C(C)(C)C5CC[C@]43C)C12 (stereo partly drawn) [Compound 11a]	> 50	> 50	> 50	> 50	23.8	16.6	> 50	> 50	> 50	23.3
C=C(Cn1cc(-c2ccccc2)nn1)[C@@H]1CC[C@]2(C(=O)O)CC[C@]3(C)C(CCC4[C@@]5(C)CC[C@H](OC(C)=O)C(C)(C)C5CC[C@]43C)C12 (stereo partly drawn) [Compound 9a]	> 50	24.8	15.1	23.4	19.5	13.4	25.1	31.1	32.4	19.1
C=C(Cn1cc(-c2ccc(C(C)(C)C)cc2)nn1)[C@@H]1CC[C@]2(C(=O)O)CC[C@]3(C)C(CCC4[C@@]5(C)CC[C@H](O)C(C)(C)C5CC[C@]43C)C12 (stereo partly drawn) [Compound 11f]	> 50	> 50	> 50	> 50	13.7	> 50	36.7	> 50	> 50	16
C=C(Cn1cc(-c2ccccn2)nn1)[C@@H]1CC[C@]2(C(=O)O)CC[C@]3(C)C(CCC4[C@@]5(C)CC[C@H](O)C(C)(C)C5CC[C@]43C)C12 (stereo partly drawn) [Compound 11c]	> 50	> 50	> 50	> 50	8.5	14.4	> 50	> 50	> 50	7.2
